biological target: T1, OX2R (Homo sapiens, UniProt O43614); test: radioligand binding assay, membranes from CHO cells expressing the OX2 receptor; details: CHO cell membranes
T1 construct: expressed in transfected cells; host or cells: CHO cells (membranes)
T1 sequence (O43614 1-444): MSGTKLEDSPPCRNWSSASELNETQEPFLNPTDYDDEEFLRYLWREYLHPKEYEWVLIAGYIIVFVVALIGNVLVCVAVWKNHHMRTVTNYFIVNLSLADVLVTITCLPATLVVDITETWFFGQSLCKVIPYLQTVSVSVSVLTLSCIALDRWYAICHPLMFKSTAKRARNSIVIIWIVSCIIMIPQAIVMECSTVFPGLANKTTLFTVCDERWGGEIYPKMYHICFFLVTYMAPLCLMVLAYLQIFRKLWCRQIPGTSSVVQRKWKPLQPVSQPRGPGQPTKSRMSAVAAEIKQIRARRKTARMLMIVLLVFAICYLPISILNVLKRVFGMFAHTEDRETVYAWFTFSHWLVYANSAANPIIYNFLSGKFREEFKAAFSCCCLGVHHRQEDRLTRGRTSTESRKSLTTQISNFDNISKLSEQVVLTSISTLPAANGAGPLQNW
Description: The utility of the compounds in accordance with the present invention as orexin receptor OX1R and/or OX2R antagonists may be readily determined without undue experimentation by methodology well known in the art, including the “FLIPR Ca^2+ Flux Assay” (Okumura et al., Biochem. Biophys. Res. Comm. 280:976-981, 2001). In a typical experiment the OX1 and OX2 receptor antagonistic activity of the compounds of the present invention was determined in accordance with the following experimental method. For intracellular calcium measurements, Chinese hamster ovary (CHO) cells expressing the rat orexin-1 receptor or the human orexin-2 receptor, are grown in Iscove's modified DMEM containing 2 mM L-glutamine, […], 1% hypoxanthine-thymidine supplement, 100 U/ml penicillin, 100 ug/ml streptomycin and 10% heat-inactivated fetal calf serum (FCS). The cells are seeded at 20,000 cells/well into Becton-Dickinson black 384-well clear bottom sterile plates coated with poly-D-lysine. All reagents were from GIBCO-Invitrogen Corp. The seeded plates are incubated overnight at 37° C. and 5% CO2. Ala-6,12 human orexin-A as the agonist is prepared as a 1 mM stock solution in 1% bovine serum albumin (BSA) and diluted in assay buffer (HBSS containing 20 mM HEPES, 0.1% BSA and 2.5 mM probenecid, pH7.4) for use in the assay at a final concentration of 70 pM. Test compounds are prepared as 10 mM stock solution in DMSO, then diluted in 384-well plates, first in DMSO, then assay buffer. On the day of the assay, cells are washed 3 times with 100 ul assay buffer and then incubated for 60 min (37° C., 5% CO2) in 60 ul assay buffer containing 1 uM Fluo-4AM ester, 0.02% pluronic acid, and 1% BSA. The dye loading solution is then aspirated and cells are washed 3 times with 100 ul assay buffer. 30 ul of that same buffer is left in each well. Within the Fluorescent Imaging Plate Reader (FLIPR, Molecular Devices), test compounds are added to the plate in a volume of 25 ul, incubated for 5 min and finally 25 ul of agonist is added. Fluorescence is measured for each well at 1 second intervals for 5 minutes and the height of each fluorescence peak is compared to the height of the fluorescence peak induced by 70 pM Ala-6,12 orexin-A with buffer in place of antagonist. For each antagonist, IC50 value (the concentration of compound needed to inhibit 50% of the agonist response) is determined. Alternatively, compound potency can be assessed by a radioligand binding assay (described in Bergman et. al. Bioorg. Med. Chem. Lett. 2008, 18, 1425-1430) in which the inhibition constant (Ki) is determined in membranes prepared from CHO cells expressing either the OX1 or OX2 receptor. The intrinsic orexin receptor antagonist activity of a compound which may be used in the present invention may be determined by these assays.

SMILES | Ki [nM]
CNC(=O)[C@@H](c1ccccc1)N1CCc2nc(OC)c(OC)cc2[C@@H]1CCc1ccc(C(F)(F)F)cc1 [Compound 1-6, (2R)-2-[(5S)-2,3-dimethoxy-5-{-2-[4-(trifluoromethyl)phenyl]ethyl}-7,8-dihydro-1,6-naphthyridin-6(5H)-yl]-N-methyl-2-phenylethanamide] | 0.19
CNC(=O)[C@@H](c1ccccc1)N1CCc2nc(OC)c(OC)cc2[C@@H]1CCc1ccc(Cl)cc1 [Compound 1-7, (2R)-2-[(5S)-5-[2-(4-chlorophenyl)-ethyl]-2,3-dimethoxy-7,8-dihydro-1,6-naphthyridin-6(5H)-yl]-N-methyl-2-phenylethanamide] | 0.26
CNC(=O)[C@@H](c1ccccc1)N1CCc2nc(OC)c(OC)cc2[C@@H]1CCc1ccc(C)cc1 [Compound 1-9, (2R)-2-[(5S)-2,3-dimethoxy-5-[2-(4-methylphenyl)ethyl]-7,8-dihydro-1,6-naphthyridin-6(5H)-yl]-N-methyl-2-phenylethanamide] | 0.18
CNC(=O)[C@@H](c1ccccc1)N1CCc2cc(OC)c(OC)nc2[C@@H]1CCc1ccc(C(F)(F)F)cc1 [Compound 1-10, (2R)-2-[(8S)-2,3-dimethoxy-8-{2-[4-(trifluoromethyl)phenyl]ethyl}-5,8-dihydro-1,7-naphthyridin-7(6H)-yl]-N-methyl-2-phenylethanamide] | 0.17
CNC(=O)[C@@H](c1ccccc1)N1CCc2nc(OC)c(OC)nc2[C@@H]1CCc1ccc(C(F)(F)F)cc1 [Compound 1-11, (2R)-2-[(5S)-2,3-dimethoxy-5-{2-[4-(trifluoromethyl)phenyl]ethyl}-7,8-dihydropyrido[3,4-b]pyrazin-6(5H)-yl]-N-methyl-2-phenylethanamide] | 0.44
CNC(=O)[C@@H](c1ccccc1)N1CCc2nc(OC)c(OC)cc2[C@@H]1CCc1ccc(F)cc1F [Compound 1-8, (2R)-2-[(5S)-5-[2-(2,4-difluoro-phenyl)ethyl]-2,3-dimethoxy-7,8-dihydro-1,6-naphthyridin-6(5H)-yl]-N-methyl-2-phenylethanamide] | 1
